# Measurements: ChEMBL document CHEMBL1138389, “Identification of selective neuropeptide Y2 peptide agonists” (Bioorg Med Chem Lett, 2007)
# Bridge positions count the residues as written; N and C are the ends. Peptide text beside a SMILES is read from it.
# Experiments:
# [1] = target: T1, Neuropeptide Y receptor type 2 (Homo sapiens, UniProt P49146); assay: Displacement of human [125I]PYY from NPY2 receptor expressed in human KAN-TS cells; type: cell-based
# T1 sequence (P49146 whole entry): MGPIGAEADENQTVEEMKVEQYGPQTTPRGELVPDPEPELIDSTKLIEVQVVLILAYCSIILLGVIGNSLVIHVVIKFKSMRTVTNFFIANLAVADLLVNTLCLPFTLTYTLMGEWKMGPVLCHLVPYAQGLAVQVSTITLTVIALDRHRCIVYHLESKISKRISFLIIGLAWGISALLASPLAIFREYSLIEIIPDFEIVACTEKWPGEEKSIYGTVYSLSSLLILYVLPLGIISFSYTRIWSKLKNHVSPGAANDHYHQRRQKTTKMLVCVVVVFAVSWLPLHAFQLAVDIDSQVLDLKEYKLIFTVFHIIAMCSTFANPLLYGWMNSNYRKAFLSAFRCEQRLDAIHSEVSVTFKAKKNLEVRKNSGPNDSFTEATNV
# [2] = target: T2, Neuropeptide Y receptor type 1 (Homo sapiens, UniProt P25929); assay: Displacement of [125I]PYY from NPY1 receptor expressed in human SK-N-MC cells; type: cell-based
# T2 sequence (P25929 whole entry): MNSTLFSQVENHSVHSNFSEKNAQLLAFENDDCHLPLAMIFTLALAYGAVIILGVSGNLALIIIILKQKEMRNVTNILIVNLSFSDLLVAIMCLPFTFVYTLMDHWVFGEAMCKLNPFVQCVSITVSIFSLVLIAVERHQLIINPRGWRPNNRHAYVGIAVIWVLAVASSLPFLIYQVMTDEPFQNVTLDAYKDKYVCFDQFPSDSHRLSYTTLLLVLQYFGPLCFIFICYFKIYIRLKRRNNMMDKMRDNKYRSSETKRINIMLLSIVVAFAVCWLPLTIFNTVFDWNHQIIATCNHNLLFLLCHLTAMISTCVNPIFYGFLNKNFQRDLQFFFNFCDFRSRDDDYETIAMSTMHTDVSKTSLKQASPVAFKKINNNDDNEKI
# [3] = target: T3, Neuropeptide Y receptor type 5 (Homo sapiens, UniProt Q15761); assay: Displacement of [125I]PYY from NPY5 receptor expressed in human HEK293 cells; type: cell-based
# T3 sequence (Q15761 whole entry): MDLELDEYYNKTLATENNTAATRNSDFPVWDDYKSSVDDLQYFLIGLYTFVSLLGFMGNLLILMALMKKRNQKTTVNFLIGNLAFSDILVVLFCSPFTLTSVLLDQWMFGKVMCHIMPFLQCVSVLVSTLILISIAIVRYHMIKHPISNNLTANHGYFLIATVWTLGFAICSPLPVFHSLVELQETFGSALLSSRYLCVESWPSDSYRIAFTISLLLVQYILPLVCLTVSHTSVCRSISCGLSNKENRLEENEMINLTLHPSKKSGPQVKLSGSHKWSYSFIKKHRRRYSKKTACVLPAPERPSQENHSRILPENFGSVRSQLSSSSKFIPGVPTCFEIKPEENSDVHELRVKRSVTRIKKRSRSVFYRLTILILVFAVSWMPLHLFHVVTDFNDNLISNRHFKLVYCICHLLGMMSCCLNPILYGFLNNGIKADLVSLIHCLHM
# [4] = target: T1, Neuropeptide Y receptor type 2; assay: Agonist activity at human NPY2 receptor expressed in human KAN-TS cells by [35S]GTP-gamma-S incorporation assay; type: functional, cell-based
Compound,Ki ([1]; kan-ts),Ki ([2]; sk-n-mc),Ki ([3]; hek293),EC50 ([4]; kan-ts),Ki [1],Ki [2],EC50 [4],Ki [3]
CC[C@H](C)[C@@H]1NC(=O)[C@H](CC(C)C)NC(=O)[C@H](CC(N)=O)NC(=O)[C@@H](NC(=O)[C@H](Cc2ccc(O)cc2)NC(=O)[C@H](Cc2cnc[nH]2)NC(=O)[C@H](CCCN=C(N)N)NC(C)=O)CCCCNC(=O)CC[C@@H](C(=O)N[C@@H](CCCN=C(N)N)C(=O)N[C@@H](CCC(N)=O)C(=O)N[C@@H](CCCN=C(N)N)C(=O)N[C@@H](Cc2ccc(O)cc2)C(N)=O)NC1=O (Ac-RHYKNLIERQRY-NH2; lactam 4-8),75 nM,> 1000 nM,> 1000 nM,31 nM,,,,
CC(=O)N[C@@H](C)C(=O)N[C@@H](CO)C(=O)N[C@@H](CC(C)C)C(=O)N[C@@H](CCCNC(=N)N)C(=O)N[C@@H](Cc1cnc[nH]1)C(=O)N[C@@H](Cc1ccc(O)cc1)C(=O)N[C@@H](CC(C)C)C(=O)N[C@@H](CC(N)=O)C(=O)N[C@@H](CC(C)C)C(=O)N[C@H](C(=O)N[C@H](C(=O)N[C@@H](CCCNC(=N)N)C(=O)N[C@@H](CCC(N)=O)C(=O)N[C@@H](CCCNC(=N)N)C(=O)N[C@@H](Cc1ccc(O)cc1)C(N)=O)[C@@H](C)O)C(C)C,,,,,9 nM,118 nM,13 nM,
Ac-HYLNLVTRQRY-NH2,,,,,670 nM,> 1000 nM,430 nM,> 1000 nM
